Measured values published in patent publication US20210267948A1, “TREATMENT OF CANCER” (CITY OF HOPE, priority 2017, published 2021).

Experiments:
PARP1 = target: T1, PARP1 (Homo sapiens, UniProt P09874); assay: PARP1 Chemiluminescent Assay on lysates of treated cells; assay type: cell-based
T1 construct: endogenous in cells; host or cells: HCC1937, HCC1937+BRCA1, UWB1.289 and UWB1.289+BRCA1 human cancer cells (lysates)
Method: The PARP1 activity was determined using the PARP1 Chemiluminescent Assay Kit (BPS Bioscience, San Diego) according to the manufacturer's protocol. Briefly, the ribosylation reaction was carried out with activated DNA in PARP assay buffer using test inhibitor, positive control, substrate control and blank reactions, for 1 hour at 25° C. Detection was by streptavidin-HRP with chemiluminescent substrate A and B read in a luminometer. NZebrafish (Danio rerio) were obtained from zebrafish Core facility of Taipei Medical University and maintained at 28° C. on a 14 h light/10 h dark cycle. Embryos were incubated at 28° C. and different developmental stages were determined as described (25). Wild-type embryos were treated with different concentrations of HU (0, 5, 10, 20, 50 mM) or COH29 (0, 10, 20, 50, 100 μM) at 20 hpf to evaluate the mutagenic effect. Fifteen embryos were treated per well condition. […] Embryos were observed using an Olympus IX70-FLA inverted fluorescence microscope. Images were taken using SPOT digital camera system (Diagnostic Instruments, Sterling Heights, Mich., USA) and assembled with Image) software (26).
To determine if COH29 inhibited hPARP1, PARP1 activity was examined in lysates of cells treated with or without COH29 for 4 h, 8 h or 24 h.

HCC1937 = assay: Microarray gene ontology enrichment, HCC1937; assay type: cell-based, human; settings: genes downregulated, HCC1937-COH29 vs HCC1937
Method: FDR values were calculated using the method of Benjamini and Hochberg (28) from the distribution of ANOVA with Linear Contrastp-values. Gene ontology (GO) (29) enrichment analysis was performed within PARTEK® GENOMICS SUITE™, and GO categories were defined significant with a Fisher Exact test p-value<0.05.
To identify the mechanism through which COH29 preferentially lyses BRCA1-mutant human cancer cells, genome-wide microarray analysis was performed using the AFFYMETRIX® GENECHIP® microarray platform to identify the gene expression profiles and pathways affected by COH29 treatment. The RNA expression profile of COH29 treated HCC1937 breast cancer cells lacking BRCA1 was compared with that of COH29 treated HCC1937+BRCA1 cells. […] For example, DNA ligation involved in DNA repair is more strongly enriched in HCC1937 cells which may relate to the phenotypic effect.

A549 cells = assay: DDR proteins in A549 cells (Western blot, immunofluorescence); assay type: cell-based, human
Method: Immunofluorescence experiments were conducted as described previously (21,22). Specifically, A549 cells were grown on glass coverslips. After treatment with COH29 (1 or 10 μM) for 24 or 48 hours, cells were fixed with 4% paraformaldehyde for 10 min and permeabilized with TRITON™ X-100 (0.5%). The coverslips were washed with phosphate-buffered saline (PBS) and blocked with PBS-containing 2% bovine serum albumin (BSA), incubated with an Ab specific to FOXO3 or ATM-pS1981 or γ-H2AX or p53-pS15 (1:50-1:200 dilution), followed by Alexa 488-conjugated anti-rabbit or anti-mouse (1:200), Alexa 594-conjugated anti-goat (1:100) secondary Abs (Molecular Probes). Cells were incubated with 4′,6-diamidino-2-phenylindole (DAPI; Sigma) to stain the nuclei. Specific staining was visualized and images were captured with a Leica SP2 AOBS confocal laser scanning microscope. To measure foci-positive cells, ˜300 cells were used randomly captured by confocal microscopy. The percentages of considering foci-positive cells were calculated from cells containing at least five foci. Each error bar presented is the mean of standard deviation.
For subcellular fractionation, cells were trypsinized and washed with cold PBS solution twice. After centrifugation at 1,200 g for 5 min, cells were incubated in buffer (50 mM HEPES, pH 7.5, 150 mM NaCl, 1 mM EDTA) containing 0.2% NONIDET™ P-40 (NP-40), supplemented with protease inhibitors (5 μg/ml each of pepstatin, leupeptin, and aprotinin) and phosphatase inhibitors on ice for 5 min. Following centrifugation at 1,000 g for 5 min, the supernatant was collected (i.e., cytoplasmic fraction) and pellets were washed with the same buffer twice. The washed samples were extracted for 40 min on ice with fractionation buffer containing 0.5% NP-40 for nuclear fraction. […] Protein concentrations of all fractions were determined with Bio-Rad Protein Assay (Bio-Rad Laboratories, Hercules, Calif.). […] The immunoblots were visualized on film with the West-Q chemi-luminescence kit (GenDEPOT, Barker, Tex.).

[1] = tested on: human cancer cells resistant to gemcitabine, hydroxyurea or cisplatin; assay: Growth of drug-resistant human cancer cells; assay type: cell-based; settings: KB-Gem, KBHURs and others, 72 h
Method: FIGS. 11A-11B depict the activity of COH29 in gemcitabine (KB-Gem) (FIG. 11A) and hydroxyurea (KBHURs) (FIG. 11B) resistant cell lines in 72 h toxicity assay. Hydroxyurea (concentration 2-50 mmol/L), gemcitabine (concentration 20-500 μmon), and COH29 (concentration 2-250 μmon) were used for real-time growth curves for KBHUR and gemcitabine, respectively, based on comparison of 72-h viability of hydroxyurea-resistant or gemcitabine-resistant cells to COH29.

[2] = HCC1937 lacking BRCA1, 24 h incubation
[3] = UWB1.289 lacking BRCA1, 8 h treatment

T1 sequence (P09874 whole entry): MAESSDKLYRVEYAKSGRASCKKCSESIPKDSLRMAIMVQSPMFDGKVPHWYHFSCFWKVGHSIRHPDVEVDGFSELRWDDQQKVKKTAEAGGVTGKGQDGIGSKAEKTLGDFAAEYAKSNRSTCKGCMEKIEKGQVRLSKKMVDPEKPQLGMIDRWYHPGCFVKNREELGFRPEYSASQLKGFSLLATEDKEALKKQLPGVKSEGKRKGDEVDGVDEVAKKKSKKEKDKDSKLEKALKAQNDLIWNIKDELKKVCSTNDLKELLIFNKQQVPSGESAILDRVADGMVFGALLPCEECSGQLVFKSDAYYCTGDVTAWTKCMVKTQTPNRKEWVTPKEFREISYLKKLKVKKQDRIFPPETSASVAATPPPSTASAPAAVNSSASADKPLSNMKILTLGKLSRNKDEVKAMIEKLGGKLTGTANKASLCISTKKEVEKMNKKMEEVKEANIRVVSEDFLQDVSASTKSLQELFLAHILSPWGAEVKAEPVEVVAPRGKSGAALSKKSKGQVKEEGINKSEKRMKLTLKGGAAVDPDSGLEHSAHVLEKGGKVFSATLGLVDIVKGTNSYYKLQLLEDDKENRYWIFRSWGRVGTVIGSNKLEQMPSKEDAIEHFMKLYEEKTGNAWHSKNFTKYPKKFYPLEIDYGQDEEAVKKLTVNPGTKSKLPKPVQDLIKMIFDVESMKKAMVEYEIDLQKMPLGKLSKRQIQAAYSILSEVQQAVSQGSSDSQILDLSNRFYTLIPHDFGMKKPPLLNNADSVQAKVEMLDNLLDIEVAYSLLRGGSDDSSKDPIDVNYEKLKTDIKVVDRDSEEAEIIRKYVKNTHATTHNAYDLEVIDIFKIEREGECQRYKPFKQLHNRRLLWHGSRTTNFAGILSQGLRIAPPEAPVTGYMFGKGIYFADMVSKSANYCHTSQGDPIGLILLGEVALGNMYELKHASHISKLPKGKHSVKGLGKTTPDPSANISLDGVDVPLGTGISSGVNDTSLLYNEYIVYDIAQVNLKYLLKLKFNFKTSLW

## O=C(Nc1nc(-c2ccc(O)c(O)c2)c(-c2ccccc2)s1)c1ccc(O)c(O)c1 [COH29, N-(4-(3,4-dihydroxyphenyl)-5-phenylthiazol-2-yl)-3,4-dihydroxybenzamide]
PARP1; HCC1937+BRCA1, 24 h incubation
  PARP1 activity decreased by: 12.66%
  PARP1 activity, COH29 treated: 2041097 cps
PARP1; [2]
  PARP1 activity decreased by: 41.08%
  PARP1 activity, COH29 treated: 427851 cps
PARP1; UWB1.289+BRCA1, 8 h treatment
  PARP1 activity rose by: 46.31%
  PARP1 activity, COH29 treated: 2129944 cps
PARP1; [3]
  PARP1 activity decreased by: 31.79%
  PARP1 activity, COH29 treated: 774611 cps
HCC1937
  Genes (n): DNA ligation involved in DNA repair: 3
  Genes (n): DNA repair: 17
  Genes (n): DSB repair: 7
  Genes (n): DSB repair via HR: 5
  Genes (n): DSB repair via NHEJ: 2
A549 cells; A549, 24 h
  protein level of BRCA1 and Rad51 foci formation: suppressed
A549 cells; A549, BRCA1 wild-type, 48 h
  γ-H2AX, phospho-p53 and phospho-ATM in the nucleus: induced accumulation
A549 cells; A549, BRCA1 wild-type, Western analysis
  Rad51 expression in the nucleus: downregulated
[1]
  growth of resistant cancer cells: suppresses the growth
